Data published in ChEMBL document CHEMBL1201862, “PubChem BioAssay data set” (2004).
Active and inactive are the calls of the source. Non-standard residues stand in square brackets, D forms with d. Residues, ends and D or L forms follow the SMILES beside them. ξ: configuration not given here. *: point of attachment. X18 = COC1=CC(=O)N(C(=O)C(O*)C(C)C)C1Cc1ccccc1; ξNMe2Val = CC(C)C(C(=O)*)N(C)C; NMeV = CN[CH](C(=O)O)C(C)C

Legend:
SN12K1 = assay: cells; type: functional; settings: Homo sapiens
P388/ADR = assay: cells; type: functional; settings: Mus musculus
P388 = assay: cells; type: functional; settings: Mus musculus
[1] = biological target: Glucose-6-phosphate 1-dehydrogenase (Homo sapiens, UniProt P11413); assay: inhibition of Homo sapiens G6PD, dose series – biochemical, fluorescence, selectivity assay for P. falciparum G6PD inhibitor project, dose response (AID 504792); type: functional
[2] = viability of uninfected HEp-2 cells – cell-based, HTS, cytotoxicity control for RSV inhibitor project, dose response (AID 2410); type: functional; settings: human respiratory syncytial virus
[3] = biological target: T1, Polyadenylate-binding protein 1 (Homo sapiens, UniProt P11940); assay: MLLE binding blockers, Cy5 peptide tracer – biochemical, fluorescence polarization, Cy5-PAM2 peptide, secondary, miRNA deadenylation inhibitor project, dose response (AID 602260); type: functional; settings: read-out: IC50_Mean
[4] = biological target: T1, Polyadenylate-binding protein 1; assay: MLLE domain peptide-binding blockers, IC50 – biochemical, fluorescence polarization, FITC-PAM2 peptide, dose response (AID 602259); type: functional; settings: read-out: IC50_Mean
cells = type: functional
Escherichia coli = assay: microbe, parasite or virus in culture
[5] = biological target: T2, High affinity choline transporter 1 (Homo sapiens, UniProt Q9GZV3); assay: human choline transporter blockers, potency – cell-based, 5-point CRC, membrane potential dye, dose response (AID 504840); type: functional
T2 sequence (Q9GZV3 whole entry): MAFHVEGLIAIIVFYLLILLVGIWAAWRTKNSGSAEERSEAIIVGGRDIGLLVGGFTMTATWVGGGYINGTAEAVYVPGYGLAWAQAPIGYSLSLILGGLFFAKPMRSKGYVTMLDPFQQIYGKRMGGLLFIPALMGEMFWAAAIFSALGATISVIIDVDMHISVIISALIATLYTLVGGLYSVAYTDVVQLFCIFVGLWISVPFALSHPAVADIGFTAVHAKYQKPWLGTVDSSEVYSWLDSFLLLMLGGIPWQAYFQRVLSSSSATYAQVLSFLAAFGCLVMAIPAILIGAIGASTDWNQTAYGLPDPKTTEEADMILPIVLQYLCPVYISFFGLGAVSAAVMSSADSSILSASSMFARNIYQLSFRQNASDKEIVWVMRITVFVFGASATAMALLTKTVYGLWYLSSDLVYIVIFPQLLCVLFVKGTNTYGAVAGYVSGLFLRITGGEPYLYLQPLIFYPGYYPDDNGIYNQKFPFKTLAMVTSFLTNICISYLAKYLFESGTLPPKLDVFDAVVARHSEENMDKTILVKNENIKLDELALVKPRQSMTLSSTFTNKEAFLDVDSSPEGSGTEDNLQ

[6] = reduction of Shn3 3'UTR-driven luciferase in osteoblasts – cell-based, Clone20 osteoblasts, firefly luciferase, cherry-picked, dose response (AID 624132); type: functional;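 note: firefly luciferase luminescence from reporter carrying the Shn3 3'UTR in osteoblasts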
[7] = loss of viability in HepG2 cells – cell-based, CellTiter-Glo, cherry-picked, cytotoxicity control for Shn3 inhibitor project, dose response (AID 624134); type: functional
[8] = non-specific 3'UTR reporter inhibition in Clone20-Shn3RL – cell-based, Renilla luciferase, cherry-picked, counter-screen for Shn3 inhibitor project, dose response (AID 624133); type: functional
[9] = biological target: T3, Low molecular weight phosphotyrosine protein phosphatase (Homo sapiens, UniProt P24666); type: functional; settings: read-out: IC50_Mean;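 note: Dose-response confirmation assay measuring inhibition of LMPTP enzyme activity by fluorescence intensity read-out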
T3 sequence (P24666 whole entry): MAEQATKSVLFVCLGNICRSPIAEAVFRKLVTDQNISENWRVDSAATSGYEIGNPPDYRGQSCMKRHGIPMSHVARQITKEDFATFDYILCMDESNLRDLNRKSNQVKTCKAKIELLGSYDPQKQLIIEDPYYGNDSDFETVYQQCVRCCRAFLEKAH

[10] = biological target: T4, Carboxy-terminal domain RNA polymerase II polypeptide A small phosphatase 1 (Homo sapiens, UniProt Q9GZU7); assay: CTDSP1 inhibitors, concentration-response, biochemical, absorbance readout, ultra-high-throughput screen actives (AID 540297); type: functional
T4 sequence (Q9GZU7 whole entry): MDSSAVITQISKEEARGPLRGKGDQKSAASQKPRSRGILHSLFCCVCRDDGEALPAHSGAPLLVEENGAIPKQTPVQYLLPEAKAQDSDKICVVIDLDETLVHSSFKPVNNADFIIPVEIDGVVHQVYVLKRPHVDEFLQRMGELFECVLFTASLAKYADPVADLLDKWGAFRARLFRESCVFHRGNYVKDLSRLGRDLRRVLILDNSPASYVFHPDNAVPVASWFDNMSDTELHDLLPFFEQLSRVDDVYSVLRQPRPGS

[11] = viability of PTEN-deleted HCT116 cells – cell-based, HCT116 PTEN knockout, dose response (AID 1047); type: functional;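 note: HCT116 colon tumor cells with PTEN knocked out; cells exposed to compound for 60 hours before readout; potency for loss of cell viability measured by luminescence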
[12] = viability of HCT116 lacking mutant beta-catenin – cell-based, human colon tumor, dose response (AID 1045); type: functional;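 note: HCT116 colon tumor cells with beta catenin knocked out; cells exposed to compound for 60 hours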
Genome polyprotein = Genome polyprotein (dengue virus type 2, UniProt P29990); assay: flavivirus cap methylation enzyme inhibition – biochemical, confirmation dose response, primary screen (AID 588689); type: functional
[13] = biological target: T5, Replicative DNA helicase DnaB (Mycobacterium tuberculosis, UniProt P9WMR3); assay: DnaB intein splicing inhibitors, dose response, biochemical, cell-free fluorescence (AID 449749); type: functional
T5 sequence (P9WMR3 whole entry): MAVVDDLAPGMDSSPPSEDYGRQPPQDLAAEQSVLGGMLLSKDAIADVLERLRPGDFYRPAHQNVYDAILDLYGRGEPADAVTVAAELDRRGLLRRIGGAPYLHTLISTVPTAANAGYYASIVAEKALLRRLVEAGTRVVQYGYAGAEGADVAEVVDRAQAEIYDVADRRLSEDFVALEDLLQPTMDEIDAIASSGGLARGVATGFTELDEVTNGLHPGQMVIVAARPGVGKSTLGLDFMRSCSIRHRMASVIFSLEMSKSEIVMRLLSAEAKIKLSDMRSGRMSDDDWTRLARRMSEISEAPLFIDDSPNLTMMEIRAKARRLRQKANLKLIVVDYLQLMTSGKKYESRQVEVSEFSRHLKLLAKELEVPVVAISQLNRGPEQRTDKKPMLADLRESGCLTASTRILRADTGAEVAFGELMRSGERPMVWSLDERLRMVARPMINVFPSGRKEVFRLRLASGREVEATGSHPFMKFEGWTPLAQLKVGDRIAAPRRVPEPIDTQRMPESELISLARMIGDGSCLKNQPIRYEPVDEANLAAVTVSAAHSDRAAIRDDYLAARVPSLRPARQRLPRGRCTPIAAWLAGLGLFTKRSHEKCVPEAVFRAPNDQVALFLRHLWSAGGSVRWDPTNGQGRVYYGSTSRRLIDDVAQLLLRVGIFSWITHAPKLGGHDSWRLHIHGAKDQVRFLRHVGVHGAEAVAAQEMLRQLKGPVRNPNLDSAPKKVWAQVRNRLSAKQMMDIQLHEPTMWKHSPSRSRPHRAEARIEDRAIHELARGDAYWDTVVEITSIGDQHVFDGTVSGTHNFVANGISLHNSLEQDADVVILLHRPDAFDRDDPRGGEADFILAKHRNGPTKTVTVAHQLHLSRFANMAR

Protein RecA = biological target: T6, Protein RecA (Mycobacterium tuberculosis, UniProt P9WHJ3); assay: Fluorescence Cell-Free Homogeneous Dose Retest to Identify Inhibitors of RecA-Intein Splicing Activity. [Related pubchem assays (depositor defined):AID2097, AID2223, AID489010, AID492950]; type: functional
T6 sequence (P9WHJ3 whole entry): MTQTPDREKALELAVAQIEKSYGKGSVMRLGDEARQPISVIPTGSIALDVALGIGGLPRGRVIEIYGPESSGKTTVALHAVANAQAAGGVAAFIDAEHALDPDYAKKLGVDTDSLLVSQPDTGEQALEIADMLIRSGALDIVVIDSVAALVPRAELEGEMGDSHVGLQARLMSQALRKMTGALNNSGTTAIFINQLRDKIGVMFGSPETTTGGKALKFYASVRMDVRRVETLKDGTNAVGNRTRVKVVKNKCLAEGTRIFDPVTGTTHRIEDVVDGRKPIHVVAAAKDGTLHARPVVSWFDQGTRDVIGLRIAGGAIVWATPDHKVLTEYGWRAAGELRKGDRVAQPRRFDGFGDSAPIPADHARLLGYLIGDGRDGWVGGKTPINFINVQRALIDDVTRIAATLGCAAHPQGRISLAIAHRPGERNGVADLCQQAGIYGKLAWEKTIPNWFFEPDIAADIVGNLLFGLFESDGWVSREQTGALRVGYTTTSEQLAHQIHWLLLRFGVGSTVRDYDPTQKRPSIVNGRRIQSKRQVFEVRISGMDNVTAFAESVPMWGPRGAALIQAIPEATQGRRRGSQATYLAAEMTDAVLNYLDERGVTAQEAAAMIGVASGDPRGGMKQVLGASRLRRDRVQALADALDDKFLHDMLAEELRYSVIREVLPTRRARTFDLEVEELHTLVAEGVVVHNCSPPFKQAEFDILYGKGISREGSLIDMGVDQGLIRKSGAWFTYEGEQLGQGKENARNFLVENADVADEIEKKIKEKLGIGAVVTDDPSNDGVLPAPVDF

T1 sequence (P11940 whole entry, the tested form may be a part): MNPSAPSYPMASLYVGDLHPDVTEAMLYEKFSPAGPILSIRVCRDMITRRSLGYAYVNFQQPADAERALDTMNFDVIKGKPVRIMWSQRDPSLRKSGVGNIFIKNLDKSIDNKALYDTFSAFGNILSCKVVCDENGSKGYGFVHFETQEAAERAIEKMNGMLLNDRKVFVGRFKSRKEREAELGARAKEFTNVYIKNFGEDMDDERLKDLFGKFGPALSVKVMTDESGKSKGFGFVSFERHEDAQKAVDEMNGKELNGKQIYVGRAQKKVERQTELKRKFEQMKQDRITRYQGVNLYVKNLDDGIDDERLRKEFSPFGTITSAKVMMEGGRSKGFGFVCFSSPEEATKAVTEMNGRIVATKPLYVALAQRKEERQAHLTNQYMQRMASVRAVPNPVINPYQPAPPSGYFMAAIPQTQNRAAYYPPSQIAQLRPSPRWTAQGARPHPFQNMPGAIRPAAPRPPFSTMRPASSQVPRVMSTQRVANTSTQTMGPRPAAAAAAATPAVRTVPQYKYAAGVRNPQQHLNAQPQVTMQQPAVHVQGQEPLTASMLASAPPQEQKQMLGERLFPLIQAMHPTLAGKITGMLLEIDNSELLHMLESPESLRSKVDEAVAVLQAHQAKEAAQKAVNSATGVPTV
Chain of Glucose-6-phosphate 1-dehydrogenase (P11413 whole entry): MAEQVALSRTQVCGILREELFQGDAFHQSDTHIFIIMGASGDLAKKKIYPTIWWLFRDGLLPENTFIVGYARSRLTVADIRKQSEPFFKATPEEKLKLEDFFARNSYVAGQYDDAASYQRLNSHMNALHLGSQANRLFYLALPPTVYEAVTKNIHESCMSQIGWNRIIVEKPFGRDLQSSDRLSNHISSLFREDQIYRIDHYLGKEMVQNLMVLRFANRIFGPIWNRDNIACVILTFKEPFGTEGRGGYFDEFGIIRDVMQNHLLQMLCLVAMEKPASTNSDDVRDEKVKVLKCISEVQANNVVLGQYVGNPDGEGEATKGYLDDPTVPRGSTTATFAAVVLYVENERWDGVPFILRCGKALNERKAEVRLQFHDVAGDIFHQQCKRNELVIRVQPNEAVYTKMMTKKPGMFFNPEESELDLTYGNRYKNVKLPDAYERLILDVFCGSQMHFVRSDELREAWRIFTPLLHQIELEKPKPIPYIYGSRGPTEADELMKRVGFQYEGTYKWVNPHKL
Chain of Genome polyprotein (P29990 2492-3391 limits assumed): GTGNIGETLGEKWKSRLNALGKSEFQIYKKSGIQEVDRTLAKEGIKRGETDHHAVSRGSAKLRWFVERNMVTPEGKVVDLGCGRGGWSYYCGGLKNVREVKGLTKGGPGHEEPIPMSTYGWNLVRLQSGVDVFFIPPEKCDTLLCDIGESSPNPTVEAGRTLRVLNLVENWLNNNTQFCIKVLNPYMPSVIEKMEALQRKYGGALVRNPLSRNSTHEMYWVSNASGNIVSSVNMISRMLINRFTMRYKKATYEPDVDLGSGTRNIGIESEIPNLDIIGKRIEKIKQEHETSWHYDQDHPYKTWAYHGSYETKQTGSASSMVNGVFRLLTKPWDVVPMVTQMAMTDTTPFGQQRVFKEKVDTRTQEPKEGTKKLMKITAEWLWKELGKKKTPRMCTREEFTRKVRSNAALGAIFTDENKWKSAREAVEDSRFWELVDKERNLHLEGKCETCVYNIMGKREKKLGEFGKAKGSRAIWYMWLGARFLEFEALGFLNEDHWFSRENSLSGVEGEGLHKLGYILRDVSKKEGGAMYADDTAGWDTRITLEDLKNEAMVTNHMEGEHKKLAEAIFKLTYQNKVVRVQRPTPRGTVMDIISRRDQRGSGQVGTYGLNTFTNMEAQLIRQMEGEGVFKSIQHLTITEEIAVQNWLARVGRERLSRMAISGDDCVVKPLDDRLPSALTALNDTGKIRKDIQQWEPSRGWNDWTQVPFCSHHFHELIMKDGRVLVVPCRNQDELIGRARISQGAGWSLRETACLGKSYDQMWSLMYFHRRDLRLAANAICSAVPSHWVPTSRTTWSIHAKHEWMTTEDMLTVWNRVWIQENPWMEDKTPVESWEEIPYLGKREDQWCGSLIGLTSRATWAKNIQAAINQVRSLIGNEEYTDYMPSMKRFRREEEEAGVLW

CC1C(O)[C@@]2(OC[C@@]34C(=O)CC5(O)[C@H](CCC6Cc7nc8c(nc7C[C@]65C)CC5CC[C@@H]6C7=C[C@H]9O[C@@]%10(O[C@@](C)(CO)C[C@@H]%10O)C(C)[C@@]9(O)[C@]7(C)[C@@H](O)CC6[C@]5(C)C8)C3=CC[C@H]4C2C)OC1(C)C (stereo not given in full)
GI50 (SN12K1): > 3.55 µM (inactive)
GI50 (P388/ADR): 0.00203 µM (active)
GI50 (P388): < 0.000355 µM (active)

COC(=O)CCC(=O)OC1(C)C(=O)C2=CN(c3ccc(OC)cc3)C(c3ccc(OC)cc3)=CC2=C(Br)C1=O (stereo not given)
IC50 [1]: 30.1 µM (inactive)

Cc1ccc(NC(=O)c2cc(C)n(-c3ccccc3)c2C)cc1
CC50 [2]: 16.9 µM (active)
IC50 [1]: > 80 µM (inactive)

N=C(N)NC(=S)Nc1ccc(Cl)cc1
IC50 [3]: > 66 µM (inactive)
IC50 [4]: > 66 µM (inactive)

CC(=O)N1CCN(c2cc3c(cc2F)c(=O)c(C(=O)O)cn3C2CC2)CC1
IC50 (cells): 2.11 µM (active)
AC50 (Escherichia coli): 1.06 µM (active)

O=C(NC1CCCCC1)C(c1ccc2ncccc2c1)N(Cc1ccc2c(c1)OCO2)C(=O)c1cccs1 (stereo not given)
IC50 [5]: 16.5 µM (active)

O=C(COC(=O)CCCSc1nc2ccccc2[nH]1)NC(=O)NC1CCCC1
IC50 [5]: 7.24 µM (active)

Cc1ccc(C(=O)N/C(=C/c2ccco2)C(=O)Nc2cccc(C)c2)cc1
IC50 [5]: 13.7 µM (active)

COc1cccc(CN(C)C(=O)c2cccc(S(=O)(=O)N3CCN(c4ccccc4)CC3)c2)c1
AC50 [6]: 64.1 µM (active)
AC50 [7]: > 70 µM (inactive)
AC50 [8]: 12.2 µM (active)

O=C(N/N=C/c1cccc([N+](=O)[O-])c1)c1cc2c(ccc3ccccc32)o1
IC50 [9]: 4.06 µM (active)
IC50 [10]: 3.91 µM (active)
EC50 [11]: 52.6 µM (active)
EC50 [12]: 148 µM (active)

O=C1NC(=O)C2(CCc3ccc(N(CCCl)CCCl)cc32)N1 (stereo not given)
GI50 (SN12K1): 15 µM (inactive)
GI50 (P388/ADR): 2.1 µM (inactive)
GI50 (P388): 1.35 µM (inactive)

COC1=CC(=O)N(C(=O)C(OC(=O)C2CCCN2C(=O)C2CCCN2C(=O)C(C(C)C)N(C)C(=O)C(NC(=O)C(C(C)C)N(C)C)C(C)C)C(C)C)C1Cc1ccccc1 (stereo not given) (ξNMe2Val-V[NMeV]PP-X18; configuration not given here)
GI50 (SN12K1): 0.0004 µM (active)
GI50 (P388/ADR): 0.00748 µM (active)
GI50 (P388): 0.0004 µM (active)

Cc1ccc(C(=O)NCC(=O)NCC(=O)OCC(=O)c2ccc([N+](=O)[O-])cc2)cc1
IC50 [1]: > 80 µM (inactive)

Cc1cc(O)c(C(C)C)cc1N=Cc1ccccc1[N+](=O)[O-]
IC50 (Genome polyprotein): > 100 µM (active)
IC50 [1]: > 80 µM (inactive)

CC1=C(C(=O)O)N2C(=O)C(NC(=O)c3ccn(C)n3)C2SC1 (stereo not given)
IC50 [3]: > 66 µM (inactive)
IC50 [4]: > 66 µM (inactive)

CC(=O)NS(=O)(=O)c1ccc(NC(=O)c2cc(-c3cccs3)nc3ccccc23)cc1
AC50 (Escherichia coli): 36.4 µM (active)

Cc1nn(Cc2ccccc2Cl)c(C)c1NC(=O)c1ccn(C)n1
AC50 (Escherichia coli): 19.1 µM (active)

CC1C(=O)OC2CC[N+]3(CC(=O)c4ccc(Br)cc4)CC=C(COC(=O)C(C)(O)C1(C)O)C23 (stereo not given)
GI50 (SN12K1): > 375 µM (inactive)
GI50 (P388/ADR): > 375 µM (inactive)
GI50 (P388): > 174 µM (inactive)

CC1CN(C(=S)c2cccc([N+](=O)[O-])c2)CC(C)O1 (stereo not given)
IC50 [3]: > 66 µM (inactive)
IC50 [4]: > 66 µM (inactive)

O=C(O)c1ccccc1Nc1cc(Cl)c2nonc2c1[N+](=O)[O-]
IC50 [3]: > 66 µM (inactive)
AC50 [13]: 0.0492 µM (active)
IC50 [4]: > 66 µM (inactive)
EC50 (Protein RecA): 1.94 µM (active)

N[C@H](C(=O)O)[C@H]1ON=C(Cl)[C@@H]1O
GI50 (SN12K1): 1.07 µM (active)
GI50 (P388/ADR): 2.23 µM (inactive)
GI50 (P388): 2.17 µM (inactive)

CCNC(=O)c1ccc(NS(=O)(=O)c2ccccc2)cc1
AC50 (Escherichia coli): 27.4 µM (active)

Nc1nc(=O)[nH][nH]1
GI50 (SN12K1): > 100 µM (inactive)
GI50 (P388/ADR): > 100 µM (inactive)
GI50 (P388): > 100 µM (inactive)

COc1cc(SC)ccc1C(=O)OCC(=O)NC(=O)NC(C)C
AC50 (Escherichia coli): 28.2 µM (active)
